According to PMC8151276, “An Integrated Approach toward NanoBRET Tracers for Analysis of GPCR Ligand Engagement” (Molecules, 2021):

How the values were obtained:
[1] = target: T1, P2RY8 (Homo sapiens, UniProt Q86VZ1); test: NanoBRET screen HiBiT-P2RY8 in HEK293; assay type: binding
T1 construct: purchased Promega (in-house HiBiT-GPCR construct library, NanoBRET)
Experimental: (§1) Each tracer candidate was screened across the entire library of HiBiT-GPCR constructs using NanoBRET as the detection modality. As depicted in Figure 4A, the specificity of interactions was evaluated through decrease in BRET due to competitive displacement of a bound tracer by excess parental compound. Each tracer was analyzed for binding to each HiBiT-GPCR fusion in the absence and in the presence of competing parental compound. Briefly, HEK293 cells were transfected with HiBiT-GPCR constructs diluted into promoterless DNA to reduce expression and maximize translocation to the cell surface. Each tracer candidate was then screened at concentrations of 1 μM and 0.1 μM across cells expressing these fusions. Cells were treated for 1.5 h with tracer either alone or in the presence of 20 μM competing parental compound (i.e., control). BRET was measured upon addition of purified LgBiT and subsequent complementation with HiBiT genetically fused to a GPCR. The specificity of interactions was assessed through a decrease in BRET signal due to competitive displacement of the bound tracer. To further gauge the robustness of these interactions, the fold response over the control (i.e., BRETtracer/BRETcontrol) was calculated. We chose a 1.5-fold response, which translates to ≥7-fold signal over noise as the minimal threshold required to score an interaction as positive.
(§2) HiBiT-GPCR DNA constructs were diluted in 10 mM Tris pH 8 to a final concentration of 0.01 μg/μL, arrayed in 96-well plates and stored at −20 °C. For transfection, HEK293 cells were suspended in Opti-MEM (without phenol red) supplemented with 2% fetal bovine serum (Seradigm) and 100 units/mL penicillin–streptomycin (Gibco) at a final concentration of 220,000 cells/mL and dispensed into white 96-well plates at 90 μL/well. Subsequent transfections and screens were carried using an Agilent Bravo Automated Liquid Handling Platform. First, the 96-well HiBiT DNA arrays were diluted 25-fold in Opti-MEM (without serum or phenol red) to a final concentration of 0.0004 μg/μL and 20 μL of the diluted DNAs were transferred into new 96-well plates. Next, promoterless carrier DNA (1 μg/μL) was diluted 25-fold (0.04 μg/μL) and then dispensed into the diluted arrays at 20 μL/well. Following brief mixing, Viafect transfection reagent (Promega) diluted 16-fold into Opti-MEM was dispensed into the plates at 40 μL/well. After mixing by pipetting, plates were incubated for 10 min on the pipetting station deck. The DNA-transfection reagent complexes were then added to plates containing cells. To facilitate the screen, 10 μL of DNA-transfection reagent complexes were added in duplicates to the top 4 and bottom 4 rows, resulting in two identical 48-well arrays per plate. Plates with transfected cells were incubated for 18–20 h at 37 °C/5% CO2. A screen of each tracer across the entire library using two different concentrations requires duplicate plates of transfected cells. Depending on the number of tracers being screened, transfections can be scaled up using the same ratios. The next day, for each tracer, four 20× screening solutions in tracer dilution buffer (Promega) were prepared: two duplicates at final concentration of 20 μM and two duplicates at a final concentration of 2 μM. […] The four resulting solutions were diluted 4-fold in Opti-MEM without serum or phenol red to generate 5× solutions (5 µM and 0.5 µM tracer +/− 100 μM competing compound). To screen the library, a BioTek MultiFlo FX liquid dispenser was used to dispense 22.5 µL of tracer solution to the top 4 rows and 22.5 µL tracer + competing compound solution to the 4 bottom rows. Plates were briefly mixed on an orbital shaker and incubated for 1.5 h at room temperature. […] Plates were briefly mixed on an orbital shaker and incubated for 15 min to allow complementation.

[2] = target: T2, CYSLTR1 (Homo sapiens, UniProt Q9Y271); test: NanoBRET screen HiBiT-CYSLTR1 in HEK293; assay type: binding
T2 construct: purchased Promega (in-house HiBiT-GPCR construct library, NanoBRET)
T2 sequence (Q9Y271 1-337): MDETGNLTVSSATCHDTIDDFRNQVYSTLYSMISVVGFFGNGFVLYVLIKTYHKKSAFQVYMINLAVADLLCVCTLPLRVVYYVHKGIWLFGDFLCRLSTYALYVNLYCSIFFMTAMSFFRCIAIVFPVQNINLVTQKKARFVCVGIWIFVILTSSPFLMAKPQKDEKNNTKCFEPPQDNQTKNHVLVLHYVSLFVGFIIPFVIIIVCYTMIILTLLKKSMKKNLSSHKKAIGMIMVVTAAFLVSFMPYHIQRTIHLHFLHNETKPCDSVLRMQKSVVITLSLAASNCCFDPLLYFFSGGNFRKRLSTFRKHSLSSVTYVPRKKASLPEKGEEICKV
Experimental: as §1, §2

T1 sequence (Q86VZ1 whole entry): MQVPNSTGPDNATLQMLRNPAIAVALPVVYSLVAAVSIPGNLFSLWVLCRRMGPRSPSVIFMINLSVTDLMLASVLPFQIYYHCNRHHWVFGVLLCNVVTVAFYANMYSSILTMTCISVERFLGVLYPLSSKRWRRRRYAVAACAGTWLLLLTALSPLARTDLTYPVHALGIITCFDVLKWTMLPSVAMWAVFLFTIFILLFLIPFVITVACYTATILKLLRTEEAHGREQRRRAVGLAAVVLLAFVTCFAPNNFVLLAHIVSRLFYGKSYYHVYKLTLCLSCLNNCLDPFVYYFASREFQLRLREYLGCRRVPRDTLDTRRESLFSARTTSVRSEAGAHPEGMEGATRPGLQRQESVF

Row | SMILES | NanoBRET Fold Response ([1]; P2RY8, tracer 0.1μM) | NanoBRET Fold Response ([1]; P2RY8, tracer 1μM) | NanoBRET Fold Response ([2]; CYSLTR1, tracer 0.1μM) | NanoBRET Fold Response ([2]; CYSLTR1, tracer 1μM) | other results
1 | CCOC(=O)c1cc(C#N)c(N2CCC(C(=O)NS(=O)(=O)Cc3ccccc3/C=C/C(=O)NCCNC(=O)CCc3ccc4n3[B-](F)(F)[N+]3=C(c5ccc[nH]5)C=CC3=C4)CC2)nc1C [AZD1283-1-NB590] | – | – | – | – | NanoBRET Fold Response ([1]; P2RY8, 0.1μM): 1.56; NanoBRET Fold Response ([1]; P2RY8, 1μM): 1.89; NanoBRET Fold Response ([2]; CYSLTR1, 0.1μM): 1.01; NanoBRET Fold Response ([2]; CYSLTR1, 1μM): 0.98
2 | N#CN=C(NCCCOc1cccc(CN2CCCCC2)c1)NCCNC(=O)CCOCCOCCOCCOCCNC(=O)CCc1ccc2n1[B-](F)(F)[N+]1=C(c3ccc[nH]3)C=CC1=C2 [Aminopotentidine-2-NB590] | 1.06 | 1.02 | 1.05 | 1.00 | –
3 | CN(C)CCC=C1c2ccccc2CCc2ccc(C(=O)NCCNC(=O)CCOCCOCCOCCOCCNC(=O)CCc3ccc4n3[B-](F)(F)[N+]3=C(c5ccc[nH]5)C=CC3=C4)cc21 [Amitriptyline-a-2-NB590] | – | – | – | – | NanoBRET Fold Response ([1]; tracer at 0.1μM): 1.05; NanoBRET Fold Response ([1]; tracer at 1μM): 0.90
4 | CN(C)CCC=C1c2ccccc2CCc2ccc(C(=O)NCCNC(=O)CCOCCOCCOCCOCCNC(=O)CCc3ccc4n3[B-](F)(F)[N+]3=C(c5ccc[nH]5)C=CC3=C4)cc21 [Amitriptyline-b-2-NB590] | – | – | 0.94 | 1.01 | NanoBRET Fold Response ([1]; tracer at 0.1μM, listed as amitriptyline-b-2-NB590): 0.88; NanoBRET Fold Response ([1]; tracer at 1μM, listed as amitriptyline-b-2-NB590): 1.07
5 | CN(CCC=C1c2ccccc2CCc2ccccc21)C(=O)CCOCCOCCOCCOCCNC(=O)CCc1ccc2n1[B-](F)(F)[N+]1=C(c3ccc[nH]3)C=CC1=C2 [Amitriptyline-e-2-NB590] | – | – | – | – | NanoBRET Fold Response ([1]; tracer at 1μM): 0.99
6 | COc1ccc2c(n1)c(CCNC(C)=O)cn2CCNC(=O)CCc1ccc2n1[B-](F)(F)[N+]1=C(c3ccc[nH]3)C=CC1=C2 [Azamelatonin-1-NB590] | – | – | – | – | NanoBRET Fold Response ([1]; 0.1μM tracer): 1.30; NanoBRET Fold Response ([1]; 1μM tracer): 1.30; NanoBRET Fold Response ([2]; 0.1μM tracer): 0.81; NanoBRET Fold Response ([2]; 1μM tracer): 1.23
7 | COc1ccc2[nH]c(-c3ccc(CNC(=O)CCOCCOCCOCCOCCNC(=O)CCc4ccc5n4[B-](F)(F)[N+]4=C(c6ccc[nH]6)C=CC4=C5)cc3)c(CCNC(C)=O)c2n1 [AzomelatoninICO9-2-NB590] | – | – | – | – | NanoBRET Fold Response ([1]; 0.1μM tracer): 1.14; NanoBRET Fold Response ([1]; 1μM tracer): 1.05; NanoBRET Fold Response ([2]; 0.1μM tracer): 0.86; NanoBRET Fold Response ([2]; 1μM tracer): 0.91
8 | O=C(CCOCCOCCOCCOCCNC(=O)CCc1ccc2n1[B-](F)(F)[N+]1=C(c3ccc[nH]3)C=CC1=C2)NCCCN1CCN(C2=Nc3cc(Cl)ccc3Nc3ccccc32)CC1 [Clozapine-a-2-NB590] | – | – | – | – | NanoBRET Fold Response ([1]; P2RY8, 0.1μM tracer): 0.97; NanoBRET Fold Response ([1]; P2RY8, 1μM tracer): 0.96; NanoBRET Fold Response ([2]; CYSLTR1, 0.1μM tracer): 0.98; NanoBRET Fold Response ([2]; CYSLTR1, 1μM tracer): 1.11
9 | CN1CCN(C2=Nc3cc(Cl)ccc3Nc3ccc(CNC(=O)CCOCCOCCOCCOCCNC(=O)CCc4ccc5n4[B-](F)(F)[N+]4=C(c6ccc[nH]6)C=CC4=C5)cc32)CC1 [Clozapine-b-2-NB590] | – | – | – | – | NanoBRET Fold Response ([1]; P2RY8, 0.1μM tracer): 0.97; NanoBRET Fold Response ([1]; P2RY8, 1μM tracer): 0.93; NanoBRET Fold Response ([2]; CYSLTR1, 0.1μM tracer): 1.10
10 | CN1CCN(C2=Nc3cc(Cl)ccc3N(CC(=O)NCCOCCOCCOCCOCCNC(=O)CCc3ccc4n3[B-](F)(F)[N+]3=C(c5ccc[nH]5)C=CC3=C4)c3ccccc32)CC1 [Clozapine-c-2-NB590] | – | – | – | – | NanoBRET Fold Response ([1]; P2RY8, 0.1μM tracer): 1.05; NanoBRET Fold Response ([1]; P2RY8, 1μM tracer): 0.79; NanoBRET Fold Response ([2]; CYSLTR1, 0.1μM tracer): 0.90
11 | O=C(CCOCCOCCOCCOCCNC(=O)CCc1ccc2n1[B-](F)(F)[N+]1=C(c3ccc[nH]3)C=CC1=C2)NCCCN1CCN(C2=Nc3ccccc3Oc3ccc(Cl)cc32)CC1 [Loxapine-a-2-NB590] | 0.95 | 0.87 | 1.12 | 1.02 | –
12 | COc1ccccc1N1CCN(CCCCN2C(=O)c3ccc(CNC(=O)CCOCCOCCOCCOCCNC(=O)CCc4ccc5n4[B-](F)(F)[N+]4=C(c6ccc[nH]6)C=CC4=C5)cc3C2=O)CC1 [NAN-190-2-NB590] | 0.99 | 1.14 | 1.04 | 1.02 | –
13 | COc1ccccc1N1CCN(CCCCN2C(=O)c3ccc(CNC(=O)CCOCCNC(=O)c4ccc(CNC(=O)CCc5ccc6n5[B-](F)(F)[N+]5=C(c7ccc[nH]7)C=CC5=C6)cc4)cc3C2=O)CC1 [NAN-190-3-NB590] | 1.21 | 1.12 | 1.15 | 1.30 | –
14 | O=C(CCc1ccc2n1[B-](F)(F)[N+]1=C(c3ccc[nH]3)C=CC1=C2)NCc1ccc(C(=O)NCCOCCC(=O)N[C@@H]2CC[C@@]3(O)[C@H]4Cc5ccc(O)c6c5[C@@]3(CCN4CC3CC3)[C@H]2O6)cc1 [Naltrexone-3-NB590] | 0.86 | 0.47 | 0.74 | 1.09 | –
15 | Cc1cc2c(s1)Nc1ccccc1N=C2N1CCN(CCCNC(=O)CCOCCOCCOCCOCCNC(=O)CCc2ccc3n2[B-](F)(F)[N+]2=C(c4ccc[nH]4)C=CC2=C3)CC1 [Olanzapine-a-2-NB590] | – | 1.13 | 1.00 | 1.06 | –
16 | O=C(CCc1ccc2n1[B-](F)(F)[N+]1=C(c3ccc[nH]3)C=CC1=C2)NCc1ccc(C(=O)NCCOCCOCCNCC(O)COc2cccc3ccccc23)cc1 (centres unmarked) [Propranolol-3-NB590] | – | – | – | – | NanoBRET Fold Response ([1]; P2RY8, 0.1μM): 1.11; NanoBRET Fold Response ([1]; P2RY8, 1μM): 1.00; NanoBRET Fold Response ([2]; CYSLTR1, 0.1μM): 0.71
17 | O=C(CCc1ccc2n1[B-](F)(F)[N+]1=C(c3ccc[nH]3)C=CC1=C2)NCCOCCOCCNC(=O)OCCOCCN1CCN(C2=Nc3ccccc3Sc3ccccc32)CC1 [Quetiapine-a-2-NB590] | 0.94 | 0.88 | 0.90 | 1.08 | –
18 | Cc1nc2n(c(=O)c1CCN1CCC(c3noc4cc(F)ccc34)CC1)CCCC2OC(=O)NCCOCCOCCOCCOCCNC(=O)CCc1ccc2n1[B-](F)(F)[N+]1=C(c3ccc[nH]3)C=CC1=C2 (centres unmarked) [Risperidone-2-NB590] | 1.06 | 0.96 | 0.97 | 0.94 | –
19 | CC(C)N(CC[C@H](c1ccccc1)c1cc(CCNC(=O)CCOCCOCCOCCOCCNC(=O)CCc2ccc3n2[B-](F)(F)[N+]2=C(c4ccc[nH]4)C=CC2=C3)ccc1O)C(C)C [Tolterodine-2-NB590] | 1.06 | 1.22 | 0.86 | 0.91 | –
20 | CC(C)N(CC[C@H](c1ccccc1)c1cc(CCNC(=O)c2ccc(CNC(=O)CCc3ccc4n3[B-](F)(F)[N+]3=C(c5ccc[nH]5)C=CC3=C4)cc2)ccc1O)C(C)C [Tolterodine-BZ-NB590] | 0.96 | 1.01 | 0.97 | 0.99 | –
